Measured values from patent publication US11787796B2, “Plasma Kallikrein inhibitors and uses thereof” (Takeda Pharmaceutical Company Limited, priority 2019, dated 2023).

target: human activated kallikrein enzyme (Homo sapiens (Human), UniProt P03952); experiment: Plasma kallikrein inhibition assay with fluorogenic peptide substrate, 500 pM activated kallikrein format; format: biochemical; settings: 500 pM activated kallikrein; 300 uM Pro-Phe-Arg-7-amido-4-methylcoumarin substrate; 30 min preincubation, 10 min reaction at RT; read-out: Primary Dose Response Assay: Average EC50
Sequence (P03952 391-638): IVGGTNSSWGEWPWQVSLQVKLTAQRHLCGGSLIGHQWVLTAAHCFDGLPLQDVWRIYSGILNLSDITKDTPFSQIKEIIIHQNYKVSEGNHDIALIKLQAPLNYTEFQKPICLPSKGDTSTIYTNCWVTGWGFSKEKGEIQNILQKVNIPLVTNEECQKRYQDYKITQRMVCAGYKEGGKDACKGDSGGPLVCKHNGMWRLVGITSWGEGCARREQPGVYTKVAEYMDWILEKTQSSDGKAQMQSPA
Sequence (P03952 20-390 partner): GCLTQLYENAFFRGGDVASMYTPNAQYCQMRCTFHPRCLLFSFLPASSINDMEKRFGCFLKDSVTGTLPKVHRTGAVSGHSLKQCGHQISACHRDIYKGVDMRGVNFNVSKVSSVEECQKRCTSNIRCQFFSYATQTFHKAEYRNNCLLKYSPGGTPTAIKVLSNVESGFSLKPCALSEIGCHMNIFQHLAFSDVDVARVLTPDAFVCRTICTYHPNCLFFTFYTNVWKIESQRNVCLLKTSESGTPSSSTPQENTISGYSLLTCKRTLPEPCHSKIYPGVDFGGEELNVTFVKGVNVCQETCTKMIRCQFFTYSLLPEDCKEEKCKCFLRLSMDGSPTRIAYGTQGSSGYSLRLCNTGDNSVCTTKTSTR
Experimental: Example compounds were evaluated for inhibition of the human activated kallikrein enzyme in two formats of an assay employing a fluorogenic peptide substrate. In one assay format, the concentrations of reagents were as follows: 20 mM Tris pH 7.5, 1 mM EDTA, 150 mM sodium chloride, 0.1% PEG-400, 0.1% Triton X-100, […], 300 uM Pro-Phe-Arg-7-amido-4-methylcoumarin substrate. Prior to reaction initiation with substrate, enzyme and inhibitors were preincubated for 30 min at RT. After initiation with substrate, reactions were incubated for 10 min at RT and fluorescence emission at 460 nm from 380 nm excitation measured with a microplate reader. In another assay format, the concentrations of reagents were as follows: 20 mM Tris pH 7.5, 1 mM EDTA, 150 mM sodium chloride, 0.1% PEG-400, 0.1% Triton X-100, 5 pM activated kallikrein enzyme, 300 uM Pro-Phe-Arg-7-amido-4-methylcoumarin substrate. Prior to reaction initiation with substrate, enzyme and inhibitors were preincubated for 30 min at RT. After initiation with substrate, reactions were incubated for 18 h at RT and fluorescence emission at 460 nm from 380 nm excitation measured with a microplate reader.
Table II provides the results of the assay in the format with 500 pM activated kallikrein assay.
Table III provides comparative plasma kallikrein inhibition potency in the assay format with 500 pM activated kallikrein assay (described in detail in the preceding example).

Compound | EC50 [nM]
CS(=O)(=O)c1ccccc1CNC(=O)c1cn(Cc2cn3cc(C4CC4)ccc3n2)nn1 [Example I-51, 1-((6-cyclopropylimidazo[1,2-a]pyridin-2-yl)methyl)-N-(2-(methylsulfonyl)benzyl)-1H-1,2,3-triazole-4-carboxamide] | 100 to 2000
COc1ccc(S(C)(=O)=O)c(CNC(=O)c2cn(Cc3cn4cc(C5CC5)ccc4n3)nn2)c1F [Example I-53, 1-((6-cyclopropylimidazo[1,2-a]pyridin-2-yl)methyl)-N-(2-fluoro-3-methoxy-6-(methylsulfonyl)benzyl)-1H-1,2,3-triazole-4-carboxamide] | 100 to 2000
O=C(NCc1cn(Cc2cn3cc(C4CC4)ccc3n2)nn1)c1ncc2c(F)c(Cl)ccn12 [Example I-56, 7-chloro-N-((1-((6-cyclopropylimidazo[1,2-a]pyridin-2-yl)methyl)-1H-1,2,3-triazol-4-yl)methyl)-8-fluoroimidazo[1,5-a]pyridine-3-carboxamide] | > 7100
COc1ccc([S+](C)[O-])c(CNC(=O)c2cn(Cc3cn4cc(C5CC5)ccc4n3)nn2)c1F (stereo not drawn) [Example I-58, 1-((6-cyclopropylimidazo[1,2-a]pyridin-2-yl)methyl)-N-(2-fluoro-3-methoxy-6-(methylsulfinyl)benzyl)-1H-1,2,3-triazole-4-carboxamide] | 2000 to 7100
COc1ccc(-n2cnnn2)c(CNC(=O)c2cncn2Cc2cn3cc(C4CC4)ccc3n2)c1F [Example I-59, 1-((6-cyclopropylimidazo[1,2-a]pyridin-2-yl)methyl)-N-(2-fluoro-3-methoxy-6-(1H-tetrazol-1-yl)benzyl)-1H-imidazole-5-carboxamide] | > 7100
O=C(NCc1ccccc1)c1cn(Cc2cn3cc(C4CC4)ccc3n2)nn1 [Example I-60, N-benzyl-1-((6-cyclopropylimidazo[1,2-a]pyridin-2-yl)methyl)-1H-1,2,3-triazole-4-carboxamide] | > 7100
COc1ccc(-c2cc3ccccn3n2)c(CNC(=O)c2cn(Cc3cn4cc(C5CC5)ccc4n3)nn2)c1F [Example I-63, 1-((6-cyclopropylimidazo[1,2-a]pyridin-2-yl)methyl)-N-(2-fluoro-3-methoxy-6-(pyrazolo[1,5-a]pyridin-2-yl)benzyl)-1H-1,2,3-triazole-4-carboxamide] | 100 to 2000
COc1ccc(F)c(CNC(=O)c2cn(Cc3cn4cc(C5CC5)ccc4n3)nn2)c1F [Example I-64, 1-((6-cyclopropylimidazo[1,2-a]pyridin-2-yl)methyl)-N-(2,6-difluoro-3-methoxybenzyl)-1H-1,2,3-triazole-4-carboxamide] | 10 to 100
O=C(NCc1ccc2[nH]cc(Cl)c2c1)c1cn(Cc2cn3cc(C4CC4)ccc3n2)nn1 [Example I-65, N-((3-chloro-1H-indol-5-yl)methyl)-1-((6-cyclopropylimidazo[1,2-a]pyridin-2-yl)methyl)-1H-1,2,3-triazole-4-carboxamide] | 10 to 100
COc1ccc(-n2cnnn2)c(CN(C)C(=O)c2cn(Cc3cn4cc(C5CC5)ccc4n3)nn2)c1F [Example I-66, 1-((6-cyclopropylimidazo[1,2-a]pyridin-2-yl)methyl)-N-(2-fluoro-3-methoxy-6-(1H-tetrazol-1-yl)benzyl)-N-methyl-1H-1,2,3-triazole-4-carboxamide] | 100 to 2000
COc1ccc(-c2cn[nH]c2)c(CNC(=O)c2cn(Cc3cn4cc(C5CC5)ccc4n3)nn2)c1F [Example I-67, 1-((6-cyclopropylimidazo[1,2-a]pyridin-2-yl)methyl)-N-(2-fluoro-3-methoxy-6-(1H-pyrazol-4-yl)benzyl)-1H-1,2,3-triazole-4-carboxamide] | 1 to 10
COc1ccc(-c2cn3ccccc3n2)c(CNC(=O)c2cn(Cc3cn4cc(C5CC5)ccc4n3)nn2)c1F [Example I-70, 1-((6-cyclopropylimidazo[1,2-a]pyridin-2-yl)methyl)-N-(2-fluoro-6-(imidazo[1,2-a]pyridin-2-yl)-3-methoxybenzyl)-1H-1,2,3-triazole-4-carboxamide] | 10 to 100

The remaining lines, values ahead:

EC50 [nM] | Compound
≤ 1 | COc1ccc(-n2cnc(C(F)(F)F)n2)c(CNC(=O)c2cn(Cc3cn4cc(C5CC5)ccc4n3)nn2)c1F [Example I-52, 1-((6-cyclopropylimidazo[1,2-a]pyridin-2-yl)methyl)-N-(2-fluoro-3-methoxy-6-(3-(trifluoromethyl)-1H-1,2,4-triazol-1-yl)benzyl)-1H-1,2,3-triazole-4-carboxamide]
≤ 1 | COc1ccc(-n2cnnn2)c(CNC(=O)c2ccn(Cc3cn4cc(C5CC5)ccc4n3)c2)c1F [Example I-54, 1-((6-cyclopropylimidazo[1,2-a]pyridin-2-yl)methyl)-N-(2-fluoro-3-methoxy-6-(1H-tetrazol-1-yl)benzyl)-1H-pyrrole-3-carboxamide]
≤ 1 | COc1ccc(-n2cnnn2)c(CNC(=O)c2cn(Cc3cn4cc(C5CC5)ccc4n3)cn2)c1F [Example I-55, 1-((6-cyclopropylimidazo[1,2-a]pyridin-2-yl)methyl)-N-(2-fluoro-3-methoxy-6-(1H-tetrazol-1-yl)benzyl)-1H-imidazole-4-carboxamide]
1 to 10 | COc1ccc(S(=O)(=O)N(C)C)c(CNC(=O)c2cn(Cc3cn4cc(C5CC5)ccc4n3)nn2)c1F [Example I-57, 1-((6-cyclopropylimidazo[1,2-a]pyridin-2-yl)methyl)-N-(6-(N,N-dimethylsulfamoyl)-2-fluoro-3-methoxybenzyl)-1H-1,2,3-triazole-4-carboxamide]
≤ 1 | COc1ccc(-n2cncn2)c(CNC(=O)c2cn(Cc3cn4cc(C5CC5)ccc4n3)nn2)c1F [Example I-61, 1-((6-cyclopropylimidazo[1,2-a]pyridin-2-yl)methyl)-N-(2-fluoro-3-methoxy-6-(1H-1,2,4-triazol-1-yl)benzyl)-1H-1,2,3-triazole-4-carboxamide]
1 to 10 | COc1ccc(-n2ccc(C(F)(F)F)n2)c(CNC(=O)c2cn(Cc3cn4cc(C5CC5)ccc4n3)nn2)c1F [Example I-62, 1-((6-cyclopropylimidazo[1,2-a]pyridin-2-yl)methyl)-N-(2-fluoro-3-methoxy-6-(3-(trifluoromethyl)-1H-pyrazol-1-yl)benzyl)-1H-1,2,3-triazole-4-carboxamide]
≤ 1 | COc1ccc(-n2cnnn2)c(CNC(=O)c2cn(Cc3cn4cc(C5CC5)cc(CC5COC5)c4n3)nn2)c1F [Example I-68, 1-((6-cyclopropyl-8-(oxetan-3-ylmethyl)imidazo[1,2-a]pyridin-2-yl)methyl)-N-(2-fluoro-3-methoxy-6-(1H-tetrazol-1-yl)benzyl)-1H-1,2,3-triazole-4-carboxamide]
≤ 1 | COc1ccc(-n2cnnn2)c(CNC(=O)c2nnn(Cc3cn4cc(C5CC5)cc(F)c4n3)n2)c1F [Example I-69, 2-((6-cyclopropyl-8-fluoroimidazo[1,2-a]pyridin-2-yl)methyl)-N-(2-fluoro-3-methoxy-6-(1H-tetrazol-1-yl)benzyl)-2H-tetrazole-5-carboxamide]
≤ 1 | COc1ccc(-n2cnnn2)c(CNC(=O)c2cn(Cc3cn4cc(C5CC5)cc(-n5cnnc5)c4n3)nn2)c1F [Example I-71, 1-((6-cyclopropyl-8-(4H-1,2,4-triazol-4-yl)imidazo[1,2-a]pyridin-2-yl)methyl)-N-(2-fluoro-3-methoxy-6-(1H-tetrazol-1-yl)benzyl)-1H-1,2,3-triazole-4-carboxamide]
